Target: Beta-secretase 1 (Homo sapiens, UniProt P56817)
Assay: Inhibition of BACE1 by fluorescence-based assay

Sequence of Beta-secretase 1 (P56817 whole entry): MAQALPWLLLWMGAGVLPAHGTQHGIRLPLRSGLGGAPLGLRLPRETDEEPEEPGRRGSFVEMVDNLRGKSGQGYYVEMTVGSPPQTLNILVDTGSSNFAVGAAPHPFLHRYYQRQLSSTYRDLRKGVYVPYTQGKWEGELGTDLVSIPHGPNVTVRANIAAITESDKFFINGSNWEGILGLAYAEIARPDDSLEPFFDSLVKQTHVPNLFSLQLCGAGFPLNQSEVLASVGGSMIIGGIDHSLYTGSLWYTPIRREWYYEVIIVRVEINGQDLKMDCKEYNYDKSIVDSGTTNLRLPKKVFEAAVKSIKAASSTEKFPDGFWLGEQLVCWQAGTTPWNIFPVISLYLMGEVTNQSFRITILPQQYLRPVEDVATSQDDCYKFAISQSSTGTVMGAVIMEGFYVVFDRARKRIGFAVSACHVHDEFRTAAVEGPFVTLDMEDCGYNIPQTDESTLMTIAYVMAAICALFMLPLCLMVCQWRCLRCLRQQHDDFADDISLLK

`O=C(c1ccccc1)N(CC(O)Cn1c2ccccc2c2ccccc21)c1ccccc1` (centres undefined) and `O=C(c1ccccc1)N(Cc1ccccc1)CC(O)Cn1c2ccccc2c2ccccc21` (centres undefined) cannot be ordered by IC50: greater than 10 µM for the first, greater than 10 µM for the second.

Going from `O=C(c1ccc(Cl)cc1)N(CC(O)Cn1c2ccccc2c2ccccc21)c1ccccc1` (centres undefined) to `O=C(c1ccccc1)N(CC(O)Cn1c2ccccc2c2ccccc21)c1ccc(Cl)cc1` (centres undefined), the IC50 rises from 4.7 µM to greater than 10 µM. The first is the more potent here.

Going from `COc1ccc(C(=O)N(CC(O)Cn2c3ccccc3c3ccccc32)c2ccccc2)cc1` (centres undefined) to `COc1ccc(C(=O)N(Cc2ccccc2)CC(O)Cn2c3ccccc3c3ccccc32)cc1` (centres undefined), the IC50 rises from 3.8 µM to greater than 10 µM.

First: O=C(c1ccc(Cl)c(Cl)c1)N(CC(O)Cn1c2ccccc2c2ccccc21)c1ccccc1 (centres undefined)
Second: O=C(c1ccc(Cl)c(Cl)c1)N(Cc1ccccc1)CC(O)Cn1c2ccccc2c2ccccc21 (centres undefined)
The IC50 of the first is lower: 2.5 µM for the first, greater than 10 µM for the second. The first is the more potent here.

`O=C(c1ccccc1)N(CC(O)Cn1c2ccccc2c2ccccc21)c1ccc(C(F)(F)F)cc1` (centres undefined) and `O=C(c1ccccc1)N(CC(O)Cn1c2ccccc2c2ccccc21)c1ccc(F)cc1` (centres undefined) cannot be ordered by IC50: greater than 10 µM for the first, greater than 10 µM for the second.

`O=C(c1ccccc1)N(CC(O)Cn1c2ccccc2c2ccccc21)c1ccc([N+](=O)[O-])cc1` (centres undefined) and `Cc1ccc(N(CC(O)Cn2c3ccccc3c3ccccc32)C(=O)c2ccccc2)cc1` (centres undefined) cannot be ordered by IC50: greater than 10 µM for the first, greater than 10 µM for the second.

`O=C(c1ccc(Cl)cc1)N(Cc1ccccc1)CC(O)Cn1c2ccccc2c2ccccc21` (centres undefined) and `O=C(c1ccccc1)N(Cc1ccc(Cl)cc1)CC(O)Cn1c2ccccc2c2ccccc21` (centres undefined) cannot be ordered by IC50: greater than 10 µM for the first, greater than 10 µM for the second.

`Cc1ccc(CN(CC(O)Cn2c3ccccc3c3ccccc32)C(=O)c2ccccc2)cc1` (centres undefined) and `COc1ccc(CN(CC(O)Cn2c3ccccc3c3ccccc32)C(=O)c2ccccc2)cc1` (centres undefined) cannot be ordered by IC50: greater than 10 µM for the first, greater than 10 µM for the second.

Compared with `O=C(c1ccccc1)N(CCc1ccccc1)CC(O)Cn1c2ccccc2c2ccccc21` (centres undefined), `O=C(c1ccccc1)N(CC(O)Cn1c2ccccc2c2ccccc21)C1CCCCC1` (centres undefined) is higher in IC50: 4.8 µM for the first, greater than 10 µM for the second.

`OC(CNc1cccc2ccccc12)Cn1c2ccccc2c2ccccc21` (centres undefined) showed an IC50 of 2.99 µM.

Reference: ChEMBL document CHEMBL1909562, “Carbazole-containing arylcarboxamides as BACE1 inhibitors” (Bioorg Med Chem Lett, 2011)
